ChEMBL document CHEMBL1157653, “Gentisides A and B, two new neuritogenic compounds from the traditional Chinese medicine Gentiana rigescens Franch” (Bioorg Med Chem, 2010)
Activity calls are given as the source filed them. The rule behind the calls is not given here.

Key:
[1] = system: PC-12; assay: Induction of neuritogenic activity in rat PC12 cells assessed as long neurite outgrowths at 1 to 30 uM after 48 hrs; assay type: functional, cell-based
[2] = system: PC-12; assay: Cytotoxicity against rat PC12 cells at 100 uM after 48 hrs; assay type: cell-based; conditions: pc-12, 48 h
[3] = system: PC-12; assay: Induction of neuritogenic activity in rat PC12 cells assessed as long neurite outgrowths at 30 uM after 48 hrs; assay type: functional
[4] = system: PC-12; assay: Induction of neuritogenic activity in rat PC12 cells assessed as appearance of long multipolar and bipolar neurite outgrowths at 30 uM after 48 hrs by phase contrast microscopy; assay type: functional, cell-based
[5] = system: PC-12; assay: Potentiation of NGF-induced neuritogenic activity in rat PC12 cells assessed as neurite outgrowths at 1 to 30 uM after 48 hrs; assay type: functional, cell-based
[6] = system: PC-12; assay: Cytotoxicity against rat PC12 cells at 1 to 30 uM after 48 hrs; assay type: cell-based; conditions: pc-12, 48 h
[7] = system: PC-12; assay: Induction of neuritogenic activity in rat PC12 cells assessed as long neurite outgrowths at 100 uM after 48 hrs; assay type: functional, cell-based
[8] = system: PC-12; assay: Induction of neuritogenic activity in rat PC12 cells assessed as long neurite outgrowths after 48 hrs; assay type: functional, cell-based

With `O=C(O)c1cccc(O)c1O` the Activity [1] was “inactive”.

`CC(C)CCCCCCCCCCCCCCCCCCCOC(=O)c1cccc(O)c1O` [GENTISIDE A] was tested, and the Activity [2] was “Toxic”, the Activity [3] was 82% and the Activity [4] was “Active”. The Activity [5] was “inactive”, the Activity [6] was “Non-toxic” and the Activity [7] was “Active”. For the same compound, the Activity [8] was “Dose-dependent effect”.

With `CC[C@H](C)CCCCCCCCCCCCCCCCCCCOC(=O)c1cccc(O)c1O` [GENTISIDE B] the Activity [2] was “Toxic”, the Activity [3] was 87% and the Activity [4] was “Active”. The Activity [5] was “inactive”, the Activity [6] was “Non-toxic” and the Activity [7] was “Active”. The Activity [8] was “Dose-dependent effect”.
